What was measured:
BPH model rats = test: Prostate growth in testosterone induced BPH rats; type: in vivo, Wistar rats
Method: Forty-two male Wistar rats (10 week old) were purchased from Biogen, Bangalore, India (CPCSEA Reg. No. 971/bc/06). The animals were housed in accordance with the CPCSEA (Committee for the Purpose of Control and Supervision of Experiments on Animals) guidelines. After a one-week acclimatization period the animals were housed in rooms maintained at 22±2° C. and 30-70% humidity. Water and standard pellet diet were given ad libitum. The animals were randomly divided into seven groups, each group consisting of six animals with less than 20% mean body weight range.
(§1) BPH was induced in rats using testosterone 5 mg/kg subcutaneously and a simultaneous treatment with different doses of saw palmetto preparations viz. Saw palmetto oil (SPO) and the inventive composition (200 and 400 mg/kg b.w.) or Finasteride (1 mg/kg b.w.) p.o., was followed for 21 days (Table 1). The inventive composition (VISPO) was a composition of saw palmetto oil having 3% β-sitosterol. At the end of the treatment period, blood was collected prior to the necropsy. Animals were sacrificed by overdose of anesthetics. The vital parameters such as prostate weight, prostate weight to body weight ratio, growth inhibition of prostate, serum testosterone level, expression of inflammatory and apoptotic proteins in prostate tissue were evaluated.
Following a 21-day treatment with the saw palmetto oil preparations and/or Finasteride, prostate tissues were excised, rinsed and weighed immediately after removal. The PW/BW ratio was calculated using the following equation: PW/BW ratio=(Prostate weight of each animal from experimental group/Body weight of each animal from experimental group)×1000. The percentage of growth inhibition was calculated as follows: 100−[(treated group−control group)/(BPH group−control group)]×100.

[1] = tested on: hyperplastic patterns in prostate tissue of BPH rats; test: Histology (H&E) of prostate tissue of BPH rats; type: in vivo, Wistar rats; details: finasteride group 1 mg/kg
Method: as §1
The prostate tissue samples were fixed in 4% formalin, dehydrated with a graded alcohol series, embedded in paraffin, and then cut into 4 μm thickness. The sections were stained with hematoxylin and eosin (H&E, Sigma-Aldrich, St. Louis, MO, USA). The images were captured using a microscope (Leica, Germany).

CC(C)(C)NC(=O)[C@H]1CC[C@H]2[C@@H]3CC[C@H]4NC(=O)C=C[C@]4(C)[C@H]3CC[C@]12C [Finasteride]
Prostate weight (BPH model rats; 1 mg/kg p.o., 21 days, testosterone 5 mg/kg s.c., mean ± SEM (n = 6)): 0.27 ± 0.01 g | Inhibition of growth (BPH model rats; 1 mg/kg p.o., 21 days, prostate growth vs BPH and control groups): 93.18% | Reduction in prostate weight (BPH model rats; Finasteride treatment 1 mg/kg, vs BPH group): 2.51 fold | Prostate weights, in words (BPH model rats; vs BPH group, p<0.001): reduced considerably | Histological examination of prostate tissue [1]: near normal prostatic glands with mild focal inflammation
